# PubChem BioAssay AID328 (DTP/NCI, 2004)
# Where “and” joins values, the source holds several entries; their conditions need not be identical. Equal entries are not always repeated. Inconclusive results and toxic doses are left out.
# Tested on: BDF1 mice, P388 leukemia ip, median survival T/C
# Assay: NCI In Vivo Anticancer Drug Screen. Data for tumor model P388 Leukemia (intraperitoneal) in B6D2F1 (BDF1) mice
# Settings: endpoint: median survival time, higher = longer survival
# Summary of the method: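 Read-out is survival of treated animals expressed relative to the vehicle group, as a T/C ratio.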
# [1] = dose: 50.0 mg/kg/injection, schedule: Q01DX009 (ip), vehicle: saline with Tween-80
# [2] = dose: 100.0 mg/kg/injection, schedule: Q01DX009 (ip), vehicle: saline with Tween-80
# [3] = dose: 200.0 mg/kg/injection, schedule: Q01DX009 (ip), vehicle: saline with Tween-80
# [4] = dose: 50.0 mg/kg/injection, schedule: Q01DX009 (ip), vehicle: Klucel (hydroxypropylcellulose) (HPC)
# [5] = dose: 50.0 mg/kg/injection, schedule: Q01DX009 (ip), vehicle: saline
# [6] = dose: 100.0 mg/kg/injection, schedule: Q04DX003 (ip), vehicle: saline with Tween-80
# [7] = dose: 12.5 mg/kg/injection, schedule: Q01DX009 (ip), vehicle: saline with Tween-80
# [8] = dose: 25.0 mg/kg/injection, schedule: Q01DX009 (ip), vehicle: saline with Tween-80
# [9] = dose: 25.0 mg/kg/injection, schedule: Q04DX003 (ip), vehicle: saline with Tween-80
# [10] = dose: 50.0 mg/kg/injection, schedule: Q04DX003 (ip), vehicle: saline with Tween-80
structure (smiles),measurement,setting,value
O=[N+]([O-])c1ccc(SC2=NCCN2)c(Cl)c1,T/C,[1],94 % of control
same,T/C,[2],103 % of control
same,T/C,[3],112 % of control
O=C(NNC(=O)c1ccc([N+](=O)[O-])cc1)c1ccccc1,T/C,"dose: 3.0 mg/kg/injection, schedule: Q01DX009 (ip), vehicle: Klucel (hydroxypropylcellulose) (HPC)",95 % of control
same,T/C,"dose: 6.0 mg/kg/injection, schedule: Q01DX009 (ip), vehicle: Klucel (hydroxypropylcellulose) (HPC)",104 % of control
same,T/C,"dose: 12.0 mg/kg/injection, schedule: Q01DX009 (ip), vehicle: Klucel (hydroxypropylcellulose) (HPC)",100 % of control
same,T/C,[4],92 % of control
same,T/C,"dose: 100.0 mg/kg/injection, schedule: Q04DX003 (ip), vehicle: Klucel (hydroxypropylcellulose) (HPC)",104 % of control
same,T/C,"dose: 200.0 mg/kg/injection, schedule: Q04DX003 (ip), vehicle: Klucel (hydroxypropylcellulose) (HPC)",87 % of control
same,T/C,"dose: 400.0 mg/kg/injection, schedule: Q04DX003 (ip), vehicle: Klucel (hydroxypropylcellulose) (HPC)",108 % of control
NC(CO)C(=O)O.[Cl-].[Cl-].[Cl-].[Cl-].[Pt+2] (stereo not given),T/C,[5],116 % of control
COc1c(Cl)cc(Cl)cc1Cl,T/C,"dose: 100.0 mg/kg/injection, schedule: Q01DX009 (ip), vehicle: other",90 % of control
same,T/C,"dose: 100.0 mg/kg/injection, schedule: Q04DX003 (ip), vehicle: other",90 % of control
same,T/C,"dose: 200.0 mg/kg/injection, schedule: Q01DX009 (ip), vehicle: other",100 % of control
same,T/C,"dose: 200.0 mg/kg/injection, schedule: Q04DX003 (ip), vehicle: other",105 % of control
same,T/C,"dose: 400.0 mg/kg/injection, schedule: Q01DX009 (ip), vehicle: other",114 % of control
same,T/C,"dose: 400.0 mg/kg/injection, schedule: Q04DX003 (ip), vehicle: other",110 % of control
CC1CC(C)(C)N=C(CC(C)(O)c2ccccn2)O1 (stereo not given),T/C,"dose: 100.0 mg/kg/injection, schedule: Q01DX001 (ip), vehicle: saline sonified",100 % of control
same,T/C,"dose: 200.0 mg/kg/injection, schedule: Q01DX001 (ip), vehicle: saline sonified",90 % of control
same,T/C,"dose: 400.0 mg/kg/injection, schedule: Q01DX001 (ip), vehicle: saline sonified",100 % of control
O=C1NC(c2cccc3c2OCO3)N=C2Oc3ccccc3C=C12 (stereo not given),T/C,[1],98 % of control
same,T/C,[2],93 % of control
same,T/C,[3],93 % of control
CCOC(=O)/C(C#N)=C/c1cc2c3c(c1)CCCN3CCC2,T/C,[6],90 % of control
same,T/C,"dose: 200.0 mg/kg/injection, schedule: Q04DX003 (ip), vehicle: saline with Tween-80",90 % of control
same,T/C,"dose: 400.0 mg/kg/injection, schedule: Q04DX003 (ip), vehicle: saline with Tween-80",86 % of control
COC1C(OC(N)=O)C(O)C(Oc2ccc3c(O)c(NC(=O)c4ccc(O)c(CC=C(C)C)c4)c(=O)oc3c2C)OC1(C)C (stereo not given),T/C,[4],121 % of control
same,T/C,"dose: 100.0 mg/kg/injection, schedule: Q01DX009 (ip), vehicle: Klucel (hydroxypropylcellulose) (HPC)",111 % of control
same,T/C,"dose: 200.0 mg/kg/injection, schedule: Q01DX009 (ip), vehicle: Klucel (hydroxypropylcellulose) (HPC)",121 % of control
CC(=O)CC(C)=O.CC(=O)CC(C)=O.Cc1nccn1C.O=N[O-].[Co],T/C,"dose: 100.0 mg/kg/injection, schedule: Q04DX002 (ip), vehicle: saline with Tween-80",105 % of control
CCCCC(=O)N/N=C(\C)[C@]1(O)Cc2c(O)c3c(c(O)c2[C@@H](OC2CC(N)C(O)C(C)O2)C1)C(=O)c1c(OC)cccc1C3=O (stereo not given in full),T/C,"dose: 0.78 mg/kg/injection, schedule: Q01DX009 (ip), vehicle: saline",109 % of control
same,T/C,"dose: 1.56 mg/kg/injection, schedule: Q01DX009 (ip), vehicle: saline",109 % of control
same,T/C,"dose: 1.56 mg/kg/injection, schedule: Q01DX009 (ip), vehicle: water",157 % of control
same,T/C,"dose: 3.12 mg/kg/injection, schedule: Q01DX009 (ip), vehicle: saline",122 % of control
same,T/C,"dose: 3.12 mg/kg/injection, schedule: Q01DX009 (ip), vehicle: water",172 % of control
same,T/C,"dose: 6.25 mg/kg/injection, schedule: Q01DX009 (ip), vehicle: saline",178 % of control
CCCCOC(=O)C(C)OC(=O)Nc1ccccc1 (stereo not given),T/C,"dose: 100.0 mg/kg/injection, schedule: Q04DX003 (sc), vehicle: olive oil, sesame oil, peanut oil",100 % of control
same,T/C,"dose: 200.0 mg/kg/injection, schedule: Q04DX003 (sc), vehicle: olive oil, sesame oil, peanut oil",88 % of control
same,T/C,"dose: 400.0 mg/kg/injection, schedule: Q04DX003 (sc), vehicle: olive oil, sesame oil, peanut oil",103 % of control
COC1C(=O)CCC2(CO2)C1(O)C1(C)OC1CCC(C)C (stereo not given),T/C,"dose: 22.0 mg/kg/injection, schedule: Q01DX009 (ip), vehicle: saline with Tween-80",109 % of control
same,T/C,"dose: 44.0 mg/kg/injection, schedule: Q01DX009 (ip), vehicle: saline with Tween-80",109 % of control
same,T/C,"dose: 87.5 mg/kg/injection, schedule: Q01DX009 (ip), vehicle: saline with Tween-80",110 % of control and 118 % of control
Cc1cccc(C(=O)C=C(C(F)(F)F)C(F)(F)F)c1,T/C,"dose: 6.25 mg/kg/injection, schedule: Q01DX009 (ip), vehicle: saline with Tween-80",110 % of control
same,T/C,[7],155 % of control
same,T/C,"dose: 12.5 mg/kg/injection, schedule: Q04DX003 (ip), vehicle: saline with Tween-80",119 % of control
same,T/C,"dose: 12.5 mg/kg/injection, schedule: Q04DX003 (sc), vehicle: saline with Tween-80",105 % of control
same,T/C,[8],150 % of control
same,T/C,[9],104 % of control
same,T/C,"dose: 25.0 mg/kg/injection, schedule: Q04DX003 (sc), vehicle: saline with Tween-80",115 % of control
same,T/C,[10],119 % of control
same,T/C,"dose: 50.0 mg/kg/injection, schedule: Q04DX003 (sc), vehicle: saline with Tween-80",120 % of control
NNCCC(=O)O,T/C,"dose: 100.0 mg/kg/injection, schedule: Q04DX003 (ip), vehicle: saline",91 % of control
same,T/C,"dose: 200.0 mg/kg/injection, schedule: Q04DX003 (ip), vehicle: saline",112 % of control
same,T/C,"dose: 264.0 mg/kg/injection, schedule: Q04DX003 (ip), vehicle: saline",113 % of control
same,T/C,"dose: 400.0 mg/kg/injection, schedule: Q04DX003 (ip), vehicle: saline",118 % of control and 123 % of control
C=C1CC(C2CCC(C)(C)C2)OC1=O (stereo not given),T/C,"dose: 25.0 mg/kg/injection, schedule: Q04DX002 (ip), vehicle: saline with Tween-80",102 % of control
same,T/C,"dose: 50.0 mg/kg/injection, schedule: Q04DX002 (ip), vehicle: saline with Tween-80",100 % of control
CCOC(=O)C(=O)NCc1cnccn1,T/C,"dose: 100.0 mg/kg/injection, schedule: Q04DX003 (ip), vehicle: water",104 % of control
same,T/C,"dose: 200.0 mg/kg/injection, schedule: Q04DX003 (ip), vehicle: water",104 % of control
same,T/C,"dose: 400.0 mg/kg/injection, schedule: Q04DX003 (ip), vehicle: water",100 % of control
O=[N+]([O-])c1ccc(N(CCO)CCO)c2nonc12,T/C,"dose: 15.0 mg/kg/injection, schedule: Q01DX009 (ip), vehicle: saline with Tween-80",101 % of control
same,T/C,[9],114 % of control
same,T/C,"dose: 30.0 mg/kg/injection, schedule: Q01DX009 (ip), vehicle: saline with Tween-80",100 % of control
same,T/C,[10],97 % of control
same,T/C,"dose: 60.0 mg/kg/injection, schedule: Q01DX009 (ip), vehicle: saline with Tween-80",101 % of control
same,T/C,[6],98 % of control
O=C(CCC(=O)c1cccc([N+](=O)[O-])c1)NNc1ccc([N+](=O)[O-])cc1[N+](=O)[O-],T/C,[2],104 % of control
same,T/C,[3],90 % of control
same,T/C,"dose: 400.0 mg/kg/injection, schedule: Q01DX009 (ip), vehicle: saline with Tween-80",95 % of control
CN(C)c1ccc(C2NC(=S)NC3=C2CCCC3)cc1 (stereo not given),T/C,[7],108 % of control
same,T/C,[8],111 % of control
same,T/C,[1],88 % of control and 109 % of control
CCCN(CCC)CC(O)c1cc2cc(C(F)(F)F)cc(C(F)(F)F)c2c2ccccc12 (stereo not given),T/C,[1],107 % of control
same,T/C,[2],114 % of control
N#Cc1c(NN)n(C2OC(CO)C(O)C2O)c2ncnc(N)c12 (stereo not given),T/C,"dose: 50.0 mg/kg/injection, schedule: Q04DX003 (ip), vehicle: saline",100 % of control
same,T/C,"dose: 83.0 mg/kg/injection, schedule: Q04DX003 (ip), vehicle: saline",100 % of control
CCCCCCC(=O)CC(SCC)c1ccccc1Cl (stereo not given),T/C,[1],93 % of control
same,T/C,[2],107 % of control
same,T/C,[3],121 % of control
O=C(O)C(S)C(S)C(=O)O.[As] (stereo not given),T/C,"dose: 25.0 mg/kg/injection, schedule: Q01DX009 (ip), vehicle: saline",94 % of control
same,T/C,"dose: 25.0 mg/kg/injection, schedule: Q04DX003 (ip), vehicle: saline sonified",118 % of control
same,T/C,[5],88 % of control
same,T/C,"dose: 50.0 mg/kg/injection, schedule: Q04DX003 (ip), vehicle: saline sonified",118 % of control
same,T/C,"dose: 100.0 mg/kg/injection, schedule: Q01DX009 (ip), vehicle: saline",88 % of control
same,T/C,"dose: 100.0 mg/kg/injection, schedule: Q04DX003 (ip), vehicle: saline sonified",122 % of control
